# Data taken from ChEMBL document CHEMBL1201862, “PubChem BioAssay data set” (2004).
#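 A five-concentration, 48-hour dose response in 96-well plates underlies each endpoint, interpolated linearly between surrounding concentrations. GI50 is the concentration that inhibits growth by half.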 Active and inactive are the calls of the source. Rule as the data show it: active = GI50 up to about 1.1 µM and inactive = higher.
# What was measured:
# Experiment in all cases: growth of human tumour cells (NCI), 48 h
# 786-0 = test system: 786-0
# A498 = test system: A498
# A549 = test system: A549
# ACHN = test system: ACHN
# BT-549 = test system: BT-549
# CAKI-1 = test system: CAKI-1
# CCRF-CEM = test system: CCRF-CEM
# COLO 205 = test system: COLO 205
# DU-145 = test system: DU-145
# EKVX = test system: EKVX
# HCC 2998 = test system: HCC 2998
# HCT-116 = test system: HCT-116
# HCT-15 = test system: HCT-15
# HL-60 = test system: HL-60
# HOP-62 = test system: HOP-62
# HOP-92 = test system: HOP-92
# HT-29 = test system: HT-29
# Hs-578T = test system: Hs-578T
# IGROV-1 = test system: IGROV-1
# K562 = test system: K562
# KM12 = test system: KM12
# LOX IMVI = test system: LOX IMVI
# M14 = test system: M14
# MCF7 = test system: MCF7
# MDA-MB-231 = test system: MDA-MB-231
# MDA-MB-435 = test system: MDA-MB-435
# MDA-N = test system: MDA-N
# MOLT-4 = test system: MOLT-4
# Malme-3M = test system: Malme-3M
# NCI-H226 = test system: NCI-H226
# NCI-H23 = test system: NCI-H23
# NCI-H460 = test system: NCI-H460
# NCI-H522 = test system: NCI-H522
# NCI/ADR-RES = test system: NCI/ADR-RES
# OVCAR-3 = test system: OVCAR-3
# OVCAR-4 = test system: OVCAR-4
# OVCAR-5 = test system: OVCAR-5
# OVCAR-8 = test system: OVCAR-8
# PC-3 = test system: PC-3
# RXF 393 = test system: RXF 393
# SF-268 = test system: SF-268
# SF-295 = test system: SF-295
# SF-539 = test system: SF-539
# SK-MEL-28 = test system: SK-MEL-28
# SK-MEL-2 = test system: SK-MEL-2
# SK-MEL-5 = test system: SK-MEL-5
# SK-OV-3 = test system: SK-OV-3
# SN12C = test system: SN12C
# SNB-19 = test system: SNB-19
# SNB-75 = test system: SNB-75
# SR = test system: SR
# SW-620 = test system: SW-620
# T47D = test system: T47D
# TK-10 = test system: TK-10
# U-251 = test system: U-251
# UACC-257 = test system: UACC-257
# UACC-62 = test system: UACC-62
# UO-31 = test system: UO-31
smiles,measurement,setting,value
COc1ccc2c(c1)Cc1cc(/N=[N+](\[O-])c3ccc4c(c3)Cc3cc(OC)ccc3-4)ccc1-2,GI50,786-0,33.2 µM (inactive)
same,GI50,A498,35.6 µM (inactive)
same,GI50,A549,43.1 µM (inactive)
same,GI50,ACHN,37.2 µM (inactive)
same,GI50,BT-549,76.7 µM (inactive)
same,GI50,CAKI-1,36.2 µM (inactive)
same,GI50,CCRF-CEM,12 µM (inactive)
same,GI50,COLO 205,15.3 µM (inactive)
same,GI50,DU-145,> 100 µM (inactive)
same,GI50,EKVX,11.3 µM (inactive)
same,GI50,HCC 2998,14.2 µM (inactive)
same,GI50,HCT-116,60.7 µM (inactive)
same,GI50,HCT-15,95.7 µM
same,GI50,HL-60,7.48 µM (inactive)
same,GI50,HOP-62,43.9 µM (inactive)
same,GI50,HOP-92,44.1 µM (inactive)
same,GI50,HT-29,15.6 µM (inactive)
same,GI50,Hs-578T,54 µM (inactive)
same,GI50,IGROV-1,24 µM (inactive)
same,GI50,K562,38.8 µM (inactive)
same,GI50,KM12,29.4 µM (inactive)
same,GI50,LOX IMVI,33.1 µM (inactive)
same,GI50,M14,49.4 µM (inactive)
same,GI50,MCF7,19.7 µM (inactive)
same,GI50,MDA-MB-231,43 µM (inactive)
same,GI50,MDA-MB-435,27.1 µM (inactive)
same,GI50,MDA-N,29.7 µM (inactive)
same,GI50,MOLT-4,36.6 µM (inactive)
same,GI50,Malme-3M,38.9 µM (inactive)
same,GI50,NCI-H226,70.3 µM (inactive)
same,GI50,NCI-H23,65.6 µM (inactive)
same,GI50,NCI-H460,39.3 µM (inactive)
same,GI50,NCI-H522,4.78 µM (inactive)
same,GI50,NCI/ADR-RES,89.1 µM (inactive)
same,GI50,OVCAR-3,48.8 µM (inactive)
same,GI50,OVCAR-4,40 µM (inactive)
same,GI50,OVCAR-5,> 100 µM (inactive)
same,GI50,OVCAR-8,38.6 µM (inactive)
same,GI50,PC-3,35.9 µM (inactive)
same,GI50,RXF 393,57.7 µM (inactive)
same,GI50,SF-268,82.8 µM (inactive)
same,GI50,SF-295,67.3 µM (inactive)
same,GI50,SF-539,10.2 µM (inactive)
same,GI50,SK-MEL-28,75.2 µM (inactive)
same,GI50,SK-MEL-2,60 µM (inactive)
same,GI50,SK-MEL-5,18.1 µM (inactive)
same,GI50,SK-OV-3,> 100 µM (inactive)
same,GI50,SN12C,> 100 µM (inactive)
same,GI50,SNB-19,51.8 µM (inactive)
same,GI50,SNB-75,39.2 µM (inactive)
same,GI50,SR,16.4 µM (inactive)
same,GI50,SW-620,> 100 µM (inactive)
same,GI50,T47D,38.5 µM (inactive)
same,GI50,TK-10,64.3 µM (inactive)
same,GI50,U-251,16.9 µM (inactive)
same,GI50,UACC-257,12.9 µM (inactive)
same,GI50,UACC-62,24.5 µM (inactive)
same,GI50,UO-31,24.9 µM (inactive)
C#C/C=C\CCCCCCCCCCCCCC/C=C\CCCCC#CC(O)C#CCCCC/C=C\CCCCCC/C=C/C(O)C#C (stereo unspecified),GI50,786-0,11.8 µM (inactive)
same,GI50,A498,30.1 µM (inactive)
same,GI50,A549,12.1 µM (inactive)
same,GI50,ACHN,20.8 µM (inactive)
same,GI50,BT-549,> 71.9 µM (inactive)
same,GI50,CAKI-1,7.69 µM (inactive)
same,GI50,CCRF-CEM,5.25 µM (inactive)
same,GI50,COLO 205,14.1 µM (inactive)
same,GI50,DU-145,30.9 µM (inactive)
same,GI50,EKVX,17 µM (inactive)
same,GI50,HCC 2998,13.1 µM (inactive)
same,GI50,HCT-116,4.67 µM (inactive)
same,GI50,HCT-15,22.5 µM
same,GI50,HL-60,13 µM (inactive)
same,GI50,HOP-62,> 62.8 µM (inactive)
same,GI50,HOP-92,16.4 µM (inactive)
same,GI50,HT-29,18.3 µM (inactive)
same,GI50,Hs-578T,42.5 µM (inactive)
same,GI50,IGROV-1,13.6 µM (inactive)
same,GI50,K562,23.8 µM (inactive)
same,GI50,KM12,7.08 µM (inactive)
same,GI50,LOX IMVI,2.55 µM (inactive)
same,GI50,M14,12.9 µM (inactive)
same,GI50,MCF7,5.62 µM (inactive)
same,GI50,MDA-MB-231,34.2 µM (inactive)
same,GI50,MDA-MB-435,4.58 µM (inactive)
same,GI50,MDA-N,3.8 µM (inactive)
same,GI50,MOLT-4,10.1 µM (inactive)
same,GI50,Malme-3M,17.1 µM (inactive)
same,GI50,NCI-H226,32.1 µM (inactive)
same,GI50,NCI-H23,9.64 µM (inactive)
same,GI50,NCI-H460,39.9 µM (inactive)
same,GI50,NCI-H522,5.7 µM (inactive)
same,GI50,NCI/ADR-RES,31.5 µM (inactive)
same,GI50,OVCAR-3,32.2 µM (inactive)
same,GI50,OVCAR-4,6.38 µM (inactive)
same,GI50,OVCAR-5,26.1 µM (inactive)
same,GI50,OVCAR-8,23.3 µM (inactive)
same,GI50,PC-3,19.1 µM (inactive)
same,GI50,RXF 393,15.8 µM (inactive)
same,GI50,SF-268,17.2 µM (inactive)
same,GI50,SF-295,17.7 µM (inactive)
same,GI50,SF-539,29.6 µM (inactive)
same,GI50,SK-MEL-28,21 µM (inactive)
same,GI50,SK-MEL-2,12.9 µM (inactive)
same,GI50,SK-MEL-5,5.89 µM (inactive)
same,GI50,SK-OV-3,> 75 µM (inactive)
same,GI50,SN12C,24.2 µM (inactive)
same,GI50,SNB-19,25.1 µM (inactive)
same,GI50,SNB-75,42.7 µM (inactive)
same,GI50,SR,14.1 µM (inactive)
same,GI50,SW-620,7.5 µM (inactive)
same,GI50,T47D,7.21 µM (inactive)
same,GI50,TK-10,21.6 µM (inactive)
same,GI50,U-251,31.9 µM (inactive)
same,GI50,UACC-257,27 µM (inactive)
same,GI50,UACC-62,11.8 µM (inactive)
same,GI50,UO-31,15.6 µM (inactive)
